Measurements published in PMC12700101 (2025).

How the values were obtained:
[1] = system: Dopamine MAB BHQ-1–FAM (DNA, aptamer) ACGCCAGTTTGAAGGTTCGTTCGCAGGTGTGGAGTGACGT; assay: fluorescence melting; conditions: 1x PBS, 2 mM MgCl2; derived from two Tm (40.0 ± 0.2, 37.3 ± 0.1); 50 µM dopamine, pH 8.0
[2] = system: Dopamine DBS Cy3/BHQ-1 (term.) (DNA, aptamer) AAATACAACAAGAAAAAACTCTCGGGACGACGCCAGTTTGAAGGTTCGTTCGCAGGTGTGGAGTGACGTCGTCCC; assay: fluorescence melting; conditions: 1x PBS, 2 mM MgCl2; pH 8.0; 50 µM dopamine; derived from two Tm (51.2, 50.6); displacement strand 1:4
[3] = system: Dopamine DBS Cy3(+T)/BHQ-1 (int.) (DNA, aptamer) AAATACAACAAGAAAAAACTCTCGGGACGACGTCCAGTTTGAAGGTTCGTTCGCAGGTGTGGAGTGACGTCGTCCC; assay: fluorescence melting; conditions: 1x PBS, 2 mM MgCl2; pH 8.0; 50 µM dopamine; derived from two Tm (50.3, 49.9); displacement strand 1:4
[4] = system: Dopamine DBS Cy3–IABkFQ (DNA, aptamer) AAATACAACAAGAAAAAACTCTCGGGACGACGACCAGTTTGAAGGTTCGTTCGCAGGTGTGGAGTGACGTCGTCCC; assay: fluorescence strand-displacement titration; conditions: 1x PBS, 2 mM MgCl2; apparent; pH 8.0, 25 °C; displaced 42-nt 5'-IABkFQ strand, 4 eq
[5] = system: Dopamine DBS Cy3–BHQ-1 (Term.) (DNA, aptamer) AAATACAACAAGAAAAAACTCTCGGGACGACGACCAGTTTGAAGGTTCGTTCGCAGGTGTGGAGTGACGTCGTCCC; assay: fluorescence strand-displacement titration; conditions: 1x PBS, 2 mM MgCl2; apparent; pH 8.0, 25 °C; displaced 43-nt strand, 5'-BHQ-1 plus T, 4 eq
[6] = system: Dopamine DBS Cy3–BHQ-1 (Position 3) (DNA, aptamer) AAATACAACAAGAAAAAACTCTCGGGACGACGACCAGTTTGAAGGTTCGTTCGCAGGTGTGGAGTGACGTCGTCCC; assay: fluorescence strand-displacement titration; conditions: 1x PBS, 2 mM MgCl2; apparent; pH 8.0, 25 °C; displaced 42-nt strand, internal BHQ-1 (position 3), 4 eq
[7] = system: Dopamine MAB Cy3–BHQ-1 (DNA, aptamer) ACGCCAGTTTGAAGGTTCGTTCGCAGGTGTGGAGTGACGT; assay: fluorescence quenching titration (molecular aptamer beacon); conditions: 1x PBS, 2 mM MgCl2; apparent; pH 8.0, 25 °C
[8] = system: Dopamine MAB FAM–BHQ-1 (DNA, aptamer) ACGCCAGTTTGAAGGTTCGTTCGCAGGTGTGGAGTGACGT; assay: as above; conditions: 1x PBS, 2 mM MgCl2; apparent; pH 8.0, 25 °C

In the case of NCCc1ccc(O)c(O)c1, the Tm [1] is reported as -2.7 °C, the Tm [2] is reported as -0.6 °C and the Tm [3] is reported as -0.4 °C. It also gave a Kd [4] of 85.0 ± 15.6 µM, a Kd [5] of 142.9 ± 11.7 µM and a Kd [6] of 2.3 ± 0.3 µM. The Kd [7] was 53.8 ± 8.8 µM and the Kd [8] was 3.0 ± 0.1 µM.
